{"source": "patent US6235891A", "about": "“Glucocorticoid receptor agonist and decreased PP5” (South Alabama Medical Science Foundation, priority 1999, dated 2001)", "key": {"[1]": {"test_system": "A549 cells", "assay": "A549 cell proliferation (viable cell counts)", "format": "cell-based, human", "conditions": "for Decrease in proliferation compared to control: 300 nM; for Growth arrest: p53 wild-type A549 cells, dexamethasone single dose 100 nM, counted six days", "description": "A549 cells were treated with ISIS 15534 or its scrambled control, ISIS 15521 at a concentration of 300 nM. Each day for the next 5 days, viable cells were counted.\nA549 cells were seeded in 12-well tissue culture plates at about 50% confluence in DMEM containing 10% fetal bovine serum. The next day, cells were treated with the PP5-specific antisense oligonucleotide, ISIS 15534, or its scrambled control, ISIS 15521, at a final concentration of 300 nM as described in Example 7. On each of the following 5 days, cultures from three wells of each treatment gruop were trypsinized, collected and counted. Cell viability was determined by trypan blue staining, and the results given are the mean of three independent experiments.\nA549 cells were seeded in 12-well tissue culture plates at a density of 5.0×10^4 cell/dish. On the next day, the cells were treated with PP5 specific antisense oligonucleotides (ISIS 15534) or the scrambled mismatch control (ISIS 15521) at a final concentration of 300 nM as described above. On each of the next five days, the cell cultures were treated briefly with trypsin to detach the cells from the dish (three wells from each test group). The number of cells was then determined by counting using a hemacytometer. Cell viability was determined with trypan blue staining. The percentage of viable cells was calculated by dividing the number of cells excluding trypan blue by the total number of cells, and the results are reported as the mean +/- SD of data collected from three independent experiments.\n(§1) The antiproliferative effect of dexamethasone correlates with the presence of wild type p53 and the expression of p21^Waf1/Cip1 mRNA. Referring to FIGS. 1A-1C, the effect of dexamethasone on cell proliferation in p53-defective T-24 human bladder carcinoma, p53-null TR9 human fibroblasts (Webster et al. 1993; Maiyar et al. 1996), and p53 wild-type A549 human lung carcinoma cells was determined by treating cells in log-phase growth with a single dose of 100 nM dexamethasone and counting the number of cells in treated (.cndot.) and untreated (.box-solid.) cultures for six consecutive days following treatment. Each point represents the mean of triplicate dishes with error bars representing SE. Under similar conditions, treatment with ISIS 15534, a potent inhibitor of PP5 gene expression, inhibited growth in A459 but not T-24 or TR9 cells (Zuo et al. 1998). Referring to FIG. 1D, a comparison of p21^Waf1/Cip1 (p21) and serum glucocorticoid inducible protein kinase (sgk) mRNA levels in p53 competent (Lanes 3, 4) and p53 deficient (Lanes 1, 2, 5, 6) cell cultures after dexamethasone treatment is shown. Cell cultures in logphase growth were treated with 100 nM dexamethasone (+) or vehicle alone as a control (-). After 24 hours total mRNA was prepared and analyzed for p21 and sgk mRNA levels by Northern analysis."}, "[2]": {"test_system": "p53-defective T-24 human bladder carcinoma cells", "assay": "T-24 cell proliferation (cell counts)", "format": "cell-based", "conditions": "p53-defective T-24 cells; dexamethasone single dose 100 nM, counted six days", "description": "as §1"}, "[3]": {"test_system": "p53-null TR9 human fibroblasts", "assay": "TR9 cell proliferation (cell counts)", "format": "cell-based", "conditions": "dexamethasone single dose 100 nM, counted six days", "description": "as §1"}, "[4]": {"test_system": "p21^Waf1/Cip1 mRNA", "assay": "Northern analysis of p21Waf1/Cip1 mRNA in A549 cells", "format": "cell-based, human", "conditions": "dexamethasone 100 nM, 24 hours", "protocol": "The cells were harvested, and total RNA was extracted with TRIzol® Reagent according to the methods of the manufacturer. Total RNA (20 μg) was fractionated on 1% agarose gels containing formaldehyde and transferred to DURLON-UV nylon membranes (Stratagene). Following UV cross-linking, the filters were hybridized with a [α^32 P]probe for human PP5. […] Hybridization was performed in the presence of 50% formamide, 0.1 M Pipes, 0.8 M NaCl, 5×Denhardt's solution, 100 μg/ml denatured herring sperm DNA, 1×10^6 cpm/ml [α-^32 P]-labeled probe and 10% dextran sulfate at 42° C. for 16 hours. […] Quantification of hybridization signals was achieved by analysis of the scanned autoradiograms using the NIH Image program (ImagePC).\nReferring to FIG. 1D, a comparison of p21^Waf1/Cip1 (p21) and serum glucocorticoid inducible protein kinase (sgk) mRNA levels in p53 competent (Lanes 3, 4) and p53 deficient (Lanes 1, 2, 5, 6) cell cultures after dexamethasone treatment is shown. […] After 24 hours total mRNA was prepared and analyzed for p21 and sgk mRNA levels by Northern analysis.\nAfter 24 hours, 20 μg of total RNA was prepared and analyzed for serine/threonine protein phosphatase 5 (PP5), p21^Waf1/Cip1 (p21), and serum/glucocorticoid inducible kinase (sgk) mRNA levels. […]"}, "[5]": {"test_system": "p21^Waf1/Cip1 mRNA", "assay": "Northern analysis of p21Waf1/Cip1 mRNA in T-24 cells", "format": "cell-based, human", "conditions": "dexamethasone 100 nM, 24 hours", "description": "(§2) The cells were harvested, and total RNA was extracted with TRIzol® Reagent according to the methods of the manufacturer. Total RNA (20 μg) was fractionated on 1% agarose gels containing formaldehyde and transferred to DURLON-UV nylon membranes (Stratagene). Following UV cross-linking, the filters were hybridized with a [α^32 P]probe for human PP5. The human PP5 cDNA probe was generated from the full length coding region of PP5 and [α^32 P]-dATP was labeled with DECAprime® DNA Labeling Kit according to the manufacturer's protocol. […] Quantification of hybridization signals was achieved by analysis of the scanned autoradiograms using the NIH Image program (ImagePC). […]\n(§3) The antiproliferative effect of dexamethasone correlates with the presence of wild type p53 and the expression of p21^Waf1/Cip1 mRNA. Referring to FIGS. 1A-1C, the effect of dexamethasone on cell proliferation in p53-defective T-24 human bladder carcinoma, p53-null TR9 human fibroblasts (Webster et al. 1993; Maiyar et al. 1996), and p53 wild-type A549 human lung carcinoma cells was determined by treating cells in log-phase growth with a single dose of 100 nM dexamethasone and counting the number of cells in treated (.cndot.) and untreated (.box-solid.) cultures for six consecutive days following treatment. […] After 24 hours total mRNA was prepared and analyzed for p21 and sgk mRNA levels by Northern analysis."}, "[6]": {"test_system": "p21^Waf1/Cip1 mRNA", "assay": "Northern analysis of p21Waf1/Cip1 mRNA in TR9 cells", "format": "cell-based, human", "conditions": "dexamethasone 100 nM, 24 hours", "description": "as §2, §3"}, "[7]": {"test_system": "GR luciferase reporter plasmid MMTV-luc", "assay": "MMTV-Luc glucocorticoid-responsive luciferase reporter assay in A549 cells", "format": "cell-based, human", "conditions": "300 nM ISIS 15534 without dexamethasone, dexamethasone ≥100 nM for 2 hours", "protocol": "Transfections and luciferase assays were conducted as described by Jones et al. (1996) using a mouse mammary tumor virus-luciferase reporter plasmid (MMTV-Luc). […] Briefly, A549 cells were transfected in serum-free medium with 1 μg MMTV-Luc plasmid DNA per 60 mm dish using 15 μg/ml Lipofectin. ODNs were added into the transfection media wherever applicable. After a 4-hour incubation, the medium was replaced with fresh complete culture medium, and the cells were cultured overnight. The cells were then treated with different amounts of dexamethasone for two hours. Cell extracts were prepared with reporter lysis buffer (Promega). […] Light production was measured for 20 seconds at 562 nm using a Monolight 2010 luminometer (Analytical Luminescence Lab., San Diego, Calif.). To control for difference in transfection efficiency, contransfections were performed with 1 μg of a plasmid encoding β-galactosidase controlled by the SV40 virus promoter (pSV-β-GAL). β-GAL activity was measured in 150 μl cell extracts using the β-Galactosidase Enzyme Assay System (Promega).\nA549 cells were transiently transfected with GR luciferase reporter plasmid, MMTV-luc (Jones et al. 1996). […] The relative light units of the cell extract were calculated as an average of three independent experiments, performed in triplicate, and presented as relative luciferase activity with error bars indicating SD."}}, "data": [{"compound": "ISIS 15534: chimeric PP5 antisense oligonucleotide, P=O wings, P=S deoxy gap; GGGCCCTATTGCTTGAGTGG, SEQ ID NO: 12 (sugars by position and backbone not given here; chimeric, phosphodiester wings, phosphorothioate deoxy gap)", "values": [{"measurement": "Decrease in proliferation compared to control", "setting": "[1]; day 2", "value": 55, "unit": "%"}, {"measurement": "Decrease in proliferation compared to control", "setting": "[1]; day 3", "value": 75, "unit": "%"}, {"measurement": "Decrease in proliferation compared to control", "setting": "[1]; day 4", "value": 89, "unit": "%"}, {"measurement": "Decrease in proliferation compared to control", "setting": "[1]; day 5", "value": 55, "unit": "%"}, {"measurement": "Growth arrest", "setting": "[1]", "value": "produced growth arrest"}, {"measurement": "Growth arrest", "setting": "[2]", "value": "neither ISIS 15534 nor dexamethasone induced"}, {"measurement": "Growth arrest", "setting": "[3]", "value": "neither ISIS 15534 nor dexamethasone induced"}, {"measurement": "Expression of p21^Waf1/Cip1", "setting": "[4]", "value": "concomitant increase in the expression of p21^Waf1/Cip1"}, {"measurement": "Expression of p21^Waf1/Cip1", "setting": "[5]", "value": "neither ISIS 15534 nor dexamethasone induced"}, {"measurement": "Expression of p21^Waf1/Cip1", "setting": "[6]", "value": "neither ISIS 15534 nor dexamethasone induced"}, {"measurement": "GR-reporter plasmid activation", "setting": "[7]", "value": "induces glucocorticoid-mediated transcriptional activation"}]}, {"compound": "C[C@@H]1C[C@H]2[C@@H]3CCC4=CC(=O)C=C[C@]4(C)[C@@]3(F)[C@@H](O)C[C@]2(C)[C@@]1(O)C(=O)CO", "note": "[dexamethasone, reference compound]", "values": [{"measurement": "A549 cell growth when expression of p53 is suppressed with ISIS 8345", "setting": "[1]; dexamethasone ≥100 nM", "value": "partially inhibit"}, {"measurement": "Growth arrest", "setting": "[1]", "value": "produced growth arrest"}, {"measurement": "Growth arrest", "setting": "[2]", "value": "neither ISIS 15534 nor dexamethasone induced"}, {"measurement": "Growth arrest", "setting": "[3]", "value": "neither ISIS 15534 nor dexamethasone induced"}, {"measurement": "Expression of p21^Waf1/Cip1", "setting": "[4]", "value": "concomitant increase in the expression of p21^Waf1/Cip1"}, {"measurement": "Expression of p21^Waf1/Cip1", "setting": "[5]", "value": "neither ISIS 15534 nor dexamethasone induced"}, {"measurement": "Expression of p21^Waf1/Cip1", "setting": "[6]", "value": "neither ISIS 15534 nor dexamethasone induced"}, {"measurement": "GR-reporter plasmid activation", "setting": "[7]", "value": "more pronounced"}]}]}
